Laboratory results taken from the OPERA property sets (Mansouri et al. 2018).

settings: not given

SMILES	boiling point	melting point	log10 vapour pressure (mmHg)	log10 Koc (L/kg)	ready biodegradability	log10 biodegradation half-life (days)	log10 Henry constant (atm·m³/mol)
CC1CNCC(C)O1 (stereo not given)	147 °C	-88 °C					
COc1nccnc1NS(=O)(=O)c1ccc(N)cc1		176 °C					
C=CCSSCC=C	188 °C						
FC(F)COC(F)F	55.3 °C		2.36				
O=[N+]([O-])c1cccc(SSc2cccc([N+](=O)[O-])c2)c1		84 °C					
Cc1ccc2c(c1)CCC(C)C2 (stereo not given)	240 °C	20 °C					
Clc1ccc(Br)cc1	196 °C	68 °C	-0.588				
N#Cc1cc(I)c(O)c([N+](=O)[O-])c1		138 °C					
CC1=CC(=O)CC(C)(C)C1	215 °C	-8.1 °C	-0.358	1.4	readily biodegradable		
CC(=O)OC1CCCCC1C (stereo not given)					readily biodegradable		
FCOC(C(F)(F)F)C(F)(F)F	58.5 °C		2.29				
CCCCCCCOCCCCCCC	258 °C						
CCC(Oc1ccc(C(C)(C)CC)cc1C(C)(C)CC)C(=O)Nc1ccc(NC(=O)C(F)(F)C(F)(F)C(F)(F)F)c(O)c1 (stereo not given)					not readily biodegradable		
O=C1C[C@@H]2OCC=C3CN4CC[C@]56c7ccccc7N1[C@H]5[C@H]2[C@H]3C[C@H]46		287 °C					
CCCCCCCCCCCCCCCCCCBr		28.2 °C	-5.23				
CCC1(c2ccccc2)C(=O)NCNC1=O		282 °C					
CCN1C(=O)c2ccccc2C1=O	286 °C	79 °C					
O=S1(=O)CCN(CN2CCS(=O)(=O)NC2)CN1		156 °C					
CCC(C)(C)c1ccc(O)c(C(C)(C)CC)c1		25 °C			not readily biodegradable		
CC(=O)O[C@]1(C(C)=O)CC[C@H]2[C@@H]3C[C@H](C(F)(F)F)C4=CC(=O)CC[C@]4(C)[C@H]3CC[C@@]21C		206 °C					
CCN(CC)CC(=O)Nc1c(C)cc(C)cc1C		44 °C					
CC(Cl)C(Cl)CCl (stereo not given)	168 °C						
N#CCON=C(C#N)c1ccccc1		55 °C	-0.457				
OCCC1CCCCN1 (stereo not given)	202 °C	69 °C					
CS(=O)(=O)c1ccc([C@@H](O)[C@@H](CO)NC(=O)C(Cl)Cl)cc1		165 °C					

SMILES	boiling point	melting point	log10 vapour pressure (mmHg)	log10 Koc (L/kg)	ready biodegradability	log10 biodegradation half-life (days)	log10 Henry constant (atm·m³/mol)
CCC1c2ccccc2-c2ccccc21						1.46	
C=C(C)C#N	90.3 °C	-35.8 °C	1.85		readily biodegradable		
Oc1ccc(Cl)cc1Sc1cc(Cl)ccc1O		174 °C					
CCN1CCCC1	104 °C						
C(#Cc1ccccc1)c1ccccc1	300 °C	62.5 °C	-2.64				
CCc1cc2ccccc2c2ccccc12		62.5 °C					
CCC(C)C(=O)NC1CCC(=O)N(CCc2ccccc2)C1=O (stereo not given)		108 °C					
CCCCOCN(C(=O)CCl)c1c(CC)cccc1CC		-2.8 °C	-5.54	2.86			-7.29
CC(=O)Nc1ccccc1C	296 °C	110 °C					
CC1CN(C2CCCCCCCCCCC2)CC(C)O1 (stereo not given)		71 °C	-5.44				
Cc1ccccc1-n1c(C)nc2ccccc2c1=O		120 °C					
Cc1ccc[nH]c1=O	289 °C	142 °C					
C=COC	5.5 °C	-122 °C	3.12				
CC(C)(C)C1CCC(=O)CC1		48.5 °C					
CC(=O)Nc1cccc(Br)c1				2.01			
CC(c1ccccc1)C1CCCCC1 (stereo not given)	265 °C						
CN=C=O	39.5 °C	-45 °C	2.54				
Clc1ccc(OCOc2ccc(Cl)cc2)cc1		70.5 °C					
C=CCC1(C2C=CCCC2)C(=O)NC(=S)NC1=O (stereo not given)		149 °C					
CN1CCN(C(c2ccccc2)c2ccccc2)CC1		106 °C					
CCc1cc(Cc2cc(CC)cc(C(C)(C)C)c2O)c(O)c(C(C)(C)C)c1		120 °C					
CCCCC(C)Cl (stereo not given)	122 °C		1.13				
CCCCCCCCCCCCCCCCCCNC(=O)[C@H](O)[C@@H](O)[C@H](O)[C@H](O)CO					not readily biodegradable		
N#Cc1ccc2c(c1)N(CCCN1CCC(O)CC1)c1ccccc1S2		116 °C					
NNC(=O)CCCCC(=O)NN					not readily biodegradable		

SMILES	boiling point	melting point	log10 vapour pressure (mmHg)	log10 Koc (L/kg)	ready biodegradability	log10 biodegradation half-life (days)	log10 Henry constant (atm·m³/mol)
O=CCC=O		72 °C					
CC(C)(OO)c1ccccc1		-9 °C	-2.49		not readily biodegradable		
CCC(CC)(CC)CC	146 °C	-33.1 °C	0.863				
COC(=O)[C@@H](C)N(C(=O)c1ccccc1)c1ccc(F)c(Cl)c1			-5.12				
CCN(CC)c1c([N+](=O)[O-])cc(C(F)(F)F)c(N)c1[N+](=O)[O-]		98 °C	-5.44	3.63			
CC1=CCC(C(C)(C)O)C[C@@H]1O (stereo not given in full)	270 °C	130 °C					
O=C1CNC(=S)N1		230 °C					
C1CCC(C(C2CCCCC2)C2CCCCC2)CC1	326 °C	48 °C					
CC#CCCCC	112 °C						
FC(F)=C(F)I	30 °C						
C=CC(C)CCC=C(C)C (stereo not given)					readily biodegradable		
CC(=O)O.CC(=O)O.N=C(NCCCCCCNC(=N)NC(=N)Nc1ccc(Cl)cc1)NC(=N)Nc1ccc(Cl)cc1		154 °C					
Cc1ccccc1C#N	205 °C	-13.5 °C	-0.348				
Cn1cnc([N+](=O)[O-])c1Sc1ncnc2nc[nH]c12		244 °C					
Clc1cc(Cl)c(-c2ccccc2)c(Cl)c1Cl							-3.68
CCOC(=O)C(C)(C)C(C)=O	182 °C						
COC(=O)CCCCCCCCC(=O)OC		38 °C					
CCCC=CC=O							-4.31
CCCCCC(=O)CCC	188 °C						
NNC(=O)c1ccccc1		115 °C					
COc1ccc(NC(C)=O)cc1	335 °C	131 °C		1.4			
CCC(C)(CC)C(C)(C)C	170 °C	-42.5 °C					
c1ccc(N=Nc2ccc(Nc3ccccc3)cc2)cc1		90 °C					
N=C(N)NC(=N)NCCc1ccccc1		176 °C					
CCCCO[N+](=O)[O-]	133 °C		0.919				-2.81

SMILES	boiling point	melting point	log10 vapour pressure (mmHg)	log10 Koc (L/kg)	ready biodegradability	log10 biodegradation half-life (days)	log10 Henry constant (atm·m³/mol)
O=c1oc2ccccc2c(O)c1C(CC(O)c1ccc(Cl)cc1)c1ccc(Cl)s1 (stereo not given)		104 °C					
CCC(C)(O)C(C)C (stereo not given)	140 °C						
N[C@@H](CC(=O)O)C(=O)O (racemic)		272 °C					
CB(C)Cl	4.9 °C						
CNC(=O)Nc1ccc(C)c(Cl)c1				2.1			
COc1cnc(NS(=O)(=O)c2ccc(N)cc2)nc1		215 °C					
O=[n+]1[n-]c(-n2ccnc2)nc2ccc(Cl)cc21		182 °C	-8.65				
CCC(C)(C)C(C)C(C)C (stereo not given)	162 °C						
Cc1ncc(CO)c(CO)c1O.Cl		207 °C					
Cc1cccc(C)c1NC1=NCCCS1		140 °C					
CCCN(CCC)C(=O)COC(=O)c1ccccc1		20 °C					
FC(F)C(F)(F)CBr	74 °C						
CC(=O)c1ccc(F)cc1	196 °C						
FC(F)(F)C(F)(F)C(F)(F)C(F)(F)C(F)(F)C(F)(F)C(F)(F)I	138 °C						
O=C1c2ccccc2C(=O)c2c(O)ccc(O)c21		200 °C	-7.61				
CCCCCCCCCCCC[N+](C)(C)CCOc1ccccc1.[Br-]		112 °C					
ClC(Cl)C(Cl)(Cl)C(Cl)Cl	218 °C						
CCN(Cc1ccccc1)c1ccccc1	288 °C	35 °C					
Cc1cc(Cl)ccc1O[C@H](C)C(=O)O			-5.58				
CCC(c1ccc(O)c(C)c1)C(CC)c1ccc(O)c(C)c1 (stereo not given)		145 °C					
O=C(O)c1cccc([N+](=O)[O-])c1		141 °C			not readily biodegradable		
CCN(CC)CC#N	170 °C						
CC(=O)c1c[nH]c2ccccc12		192 °C					
O=[N+]([O-])c1cccc(CO)c1		30.5 °C					
CN(C)CN(C)C	83 °C						

same assay, conditions: fish

SMILES	log10 BCF	log10 biotransformation half-life (days)
Nc1cc(S(=O)(=O)O)cc2cc(S(=O)(=O)[O][Na])cc(O)c12	0.46	
CC1=CC(=O)CC(C)(C)C1	0.3	-1.29
CCc1cc2ccccc2c2ccccc12		0.29
O=C(O)c1cccc([N+](=O)[O-])c1	0.85	
